Data published in publication PMC7181695, “Targeting the interaction between RNA-binding protein HuR and FOXQ1 suppresses breast cancer invasion and metastasis” (Communications Biology, 2020).

Target: T1, HuR (Hu antigen R, ELAVL1) (Homo sapiens, UniProt Q15717)
T1 construct: full-length HuR (FP, SPR); HuR RRM1/2 (AlphaLISA, SPR)
Experiment: FP competition with fluorescein-labeled ARE-Msi1 RNA; SPR direct binding to immobilized HuR; AlphaLISA (Ki […]); CETSA in MDA-MB-231 cells

T1 sequence (Q15717 2-326): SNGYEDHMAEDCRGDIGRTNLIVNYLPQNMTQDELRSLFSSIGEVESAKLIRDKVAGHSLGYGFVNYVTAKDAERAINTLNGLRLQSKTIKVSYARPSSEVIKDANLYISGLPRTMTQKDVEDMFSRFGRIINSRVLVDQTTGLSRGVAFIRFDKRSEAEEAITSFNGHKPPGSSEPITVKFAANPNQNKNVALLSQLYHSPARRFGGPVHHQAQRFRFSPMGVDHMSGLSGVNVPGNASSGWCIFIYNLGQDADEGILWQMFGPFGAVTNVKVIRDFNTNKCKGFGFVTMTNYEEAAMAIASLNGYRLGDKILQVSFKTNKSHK

Ki: 830 nM
Compound: CC(C)(C)c1ccc(S(=O)(=O)Nc2ccc3sc(/C=C/C(=O)NO)cc3c2)cc1 [KH-3, (E)-3-(5-((4-(tert-Butyl)phenyl)sulfonamido)benzo[b]thiophen-2-yl)-N-hydroxyacrylamide]
